Measured values taken from PMC11840605, “Crystallographic and Thermodynamic Evidence of Negative Coupling in the Flavin-Dependent Tryptophan Halogenases AbeH and BorH” (ACS Omega, 2025).
“And” between values parts separate entries of the source, which are not always exact repeats. Identical values can stand only once. “Also recorded” adds a separate entry of the source.

Assays:
[1] = target: T1, BorH (uncultured bacterium, UniProt M9QSI0); details: previously shown; cited from earlier work
[2] = target: T2, AbeH (uncultured bacterium, UniProt F6LWA5); format: biochemical, uncultured soil actinomycetes; details: NaCl or NaBr reaction
T2 sequence (F6LWA5 entry or part of it): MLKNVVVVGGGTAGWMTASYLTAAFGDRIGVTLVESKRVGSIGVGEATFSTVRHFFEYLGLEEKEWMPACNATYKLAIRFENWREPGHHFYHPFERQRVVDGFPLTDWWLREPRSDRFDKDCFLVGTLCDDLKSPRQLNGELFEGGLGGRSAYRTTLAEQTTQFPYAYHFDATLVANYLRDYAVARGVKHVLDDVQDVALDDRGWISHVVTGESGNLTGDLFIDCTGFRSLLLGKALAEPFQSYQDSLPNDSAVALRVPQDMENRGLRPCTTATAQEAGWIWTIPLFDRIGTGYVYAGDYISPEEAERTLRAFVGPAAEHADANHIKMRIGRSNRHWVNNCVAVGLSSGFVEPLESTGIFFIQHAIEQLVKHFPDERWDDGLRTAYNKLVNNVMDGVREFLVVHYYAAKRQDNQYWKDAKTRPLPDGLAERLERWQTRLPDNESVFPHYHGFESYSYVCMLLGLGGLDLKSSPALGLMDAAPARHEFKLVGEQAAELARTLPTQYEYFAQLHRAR
Experimental: (§1) To test the ability of BorH and AbeH to chlorinate and brominate other substrates, 100 μL reactions containing 5 μM AbeH or BorH, 10 μM of holo-AbeF or holo-BorF, 100 mM NaCl or NaBr, 2.5 mM NADH, and 0.5 mM substrate in HEPES pH 8.0 were incubated for 12 h at 37 °C with shaking at 230 rpm. The reactions were stopped by heating at 95 °C for 5 min and centrifuged at 12,000g for 5 min. Clarified reaction mixtures were analyzed using RP-HPLC on a Kromasil C18 column (100 Å pore size, 4.6 × 250 mm) mounted on a Waters 2695 HPLC. The gradient was as follows: 0–7.5 min, 5–50% B; 7.5–14 min, 50–100%; 14–25 min, 100% B; 25–40 min 100–5% B with flow rate 0.6 mL/min (Solvent A = H2O/CH3CN 95:5, 0.1% TFA; Solvent B = H2O/CH3CN 5/95, 0.1% TFA). Substrates and products were detected by monitoring UV absorbance at the λmax for each substrate. Product peak fractions were analyzed using ESI-MS on a SYNAPT HDMS mass spectrometer in positive ion mode with leucine enkephalin internal standard.

[3] = target: T1, BorH; assay: In vitro halogenation of aromatic substrates by BorH (with BorF, NADH, NaCl or NaBr; RP-HPLC); format: biochemical, uncultured soil actinomycetes; details: for BorH bromination compared with chlorination of the substrate, in words: same reaction conditions; for Halogenation (chlorination/bromination) of the substrate by BorH, in words: NaCl or NaBr reaction
Experimental: as §1

[4] = target: AbeF; details: read-out: KD, flavin binding to AbeF; cited from earlier work
[5] = target: T2, AbeH; assay: Isothermal titration calorimetry, ligand into AbeH; format: binding, uncultured soil actinomycetes
Experimental: (§2) ITC experiments were performed using a VP-ITC isothermal titration calorimeter (MicroCal) in 20 mM HEPES pH 7.5, 350 mM NaCl, 1 mM ethylenediamine tetraacetic acid (EDTA) and 15% (v/v) glycerol. Solutions of AbeH, BorH, FAD (Chem-Implex), and Trp (Acros Organics) were prepared in the same buffer and degassed under vacuum at 30 °C for 20 min before loading in the syringe or cell. To analyze formation of binary complexes, AbeH or BorH was placed inside the cell, and ligand (FAD or Trp) was injected. For ternary complex titration, one ligand was preincubated with the macromolecule for 30 min at 30 °C to form binary complexes of AbeH/FAD, AbeH/Trp, BorH/FAD, and BorH/Trp before titrating with the second ligand. To test FADH2 binding to AbeH and BorH, FAD was reduced to FADH2 using sodium dithionite and stored under N2. Formation of FADH2 by sodium dithionite was verified using absorbance and fluorescence spectrophotometry.
(§3) ITC experiments were performed with reference power set to 10 μcal/s and Milli-Q water in the reference cell. All experiments were done with a pretitration delay of 20 min, a 5 min interval between injections, and a filter period of 2 s in high feedback gain mode. All experiments were performed at 310 rpm to mix the components in cell and titrant. All other VP-ITC instrumental parameters were set to default settings. Heats of dilution for all titrants were measured by titrating ligand into buffer for binary complex titrations, and by titrating ligand into a solution containing the other ligand but no protein for ternary complex titration.
1.2 mM FAD (2 μL/1 and 5 μL/19 injections) into 18 μM AbeH (Figure 4A)
0.12 mM FADH2 (2 μL/1 and 15 μL/19 injections) into 7 μM AbeH in the presence of sodium dithionite (Figure 4B)
1.4 mM Trp (3 μL/1 and 10 μL/29 injections) into 43 μM AbeH (Figure S7)
16 mM Trp (2 μL/1 and 10 μL/29 injections) into 18 μM AbeH (Figure 5A)
(§4) Titrations were analyzed by manually integrating each injection, subtracting the heat of dilution, and carrying out nonlinear least-squares fit of the calorimetric binding data to a one-site model using Origin 7.0 (Origin Lab). Trp binding experiments were subtracted by point-by-point heat of dilution, and FAD and FADH2 binding experiments were subtracted using the mean heat of the last three injections. For the Trp binding data, n was fixed to 1 based on expected stoichiometry of 1:1 based on FDH crystal structures and as proposed for lower c-value titrations in the literature.[23],[25],[82] The other parameters were not constrained during fitting.

[6] = target: T1, BorH; assay: Isothermal titration calorimetry, ligand into BorH; format: binding, uncultured soil actinomycetes
Experimental: as §2, with “Solutions” for “ITC experiments were performed using a VP-ITC isothermal titration calorimeter (MicroCal) in 20 mM HEPES pH 7.5, 350 mM NaCl, 1 mM ethylenediamine tetraacetic acid (EDTA) and 15% (v/v) glycerol. Solutions”
as §3, §4

[7] = target: BorF; details: read-out: KD, flavin binding to BorF; cited from earlier work

T1 sequence (M9QSI0 1-529): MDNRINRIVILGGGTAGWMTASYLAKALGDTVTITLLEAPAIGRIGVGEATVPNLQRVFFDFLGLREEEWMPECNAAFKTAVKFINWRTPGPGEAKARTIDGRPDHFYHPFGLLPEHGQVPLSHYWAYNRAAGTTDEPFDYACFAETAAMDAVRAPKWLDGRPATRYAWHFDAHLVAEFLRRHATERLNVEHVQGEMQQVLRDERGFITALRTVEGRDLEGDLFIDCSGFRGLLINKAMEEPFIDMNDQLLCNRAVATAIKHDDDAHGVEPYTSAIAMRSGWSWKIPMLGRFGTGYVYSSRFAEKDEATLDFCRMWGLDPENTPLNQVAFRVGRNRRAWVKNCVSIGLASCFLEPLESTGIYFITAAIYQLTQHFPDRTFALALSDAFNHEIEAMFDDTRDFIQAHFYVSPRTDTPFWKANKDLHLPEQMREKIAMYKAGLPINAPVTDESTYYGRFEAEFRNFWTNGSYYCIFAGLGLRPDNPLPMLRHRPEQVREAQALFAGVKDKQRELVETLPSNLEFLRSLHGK

| Structure (SMILES) | Halogenation of the substrate by BorH, in words [1] | Halogenation (chlorination/bromination) of the substrate by AbeH, in words [2] | BorH bromination compared with chlorination of the substrate, in words [3] | Halogenation (chlorination/bromination) of the substrate by BorH, in words [3] | further results |
| --- | --- | --- | --- | --- | --- |
| O=C(O)CCc1c[nH]c2ccccc12 [3-indolepropionic acid] | halogenate | halogenated |  |  |  |
| N#Cc1ccc2[nH]ccc2c1 [5-cyanoindole] |  | did not halogenate; also recorded: No activity | higher rate of bromination than chlorination |  |  |
| N[C@@H](Cc1c[nH]c2ccc(O)cc12)C(=O)O [5-hydroxytryptophan] |  | did not halogenate; also recorded: No activity |  |  |  |
| Nc1ccc2c(c1)NC(=O)CO2 [6-amino-2h-1,4-benzoxazin-3(4H)-one, 6-amino-2H-1,4-benzoxazin-3(4H)-one] |  | did not halogenate; also recorded: No activity | higher rate of bromination than chlorination | could halogenate |  |
| Nc1ccc2ncccc2c1 [6-aminoquinoline] | halogenate | chlorinated and brominated | higher rate of bromination than chlorination | halogenated |  |
| Nc1ccc2cccnc2c1 [7-aminoquinoline] |  | chlorinated and brominated |  | could not halogenate; also recorded: No activity |  |
| NC(=O)c1ccccc1N [Anthranilamide] | halogenate | halogenated |  | halogenated |  |
| Cc1cc2c(cc1C)N(C[C@H](O)[C@H](O)[C@H](O)COP(=O)(O)OP(=O)(O)OC[C@H]1O[C@@H](n3cnc4c(N)ncnc43)[C@H](O)[C@@H]1O)c1[nH]c(=O)[nH]c(=O)c1N2 [FADH2] |  |  |  |  | Kd [4]: 1500 nM; Kd ([5]; ITC, read-out: KD, binding to AbeH, ITC): 100 nM and 120 nM; -TDS (-TΔS, ITC, Table S3) ([5]; cell AbeH): 5.7 kcal/mol; DG (ΔG, ITC, Table S3) ([5]; cell AbeH): -9.6 kcal/mol; DH (ΔH, ITC, Table S3) ([5]; cell AbeH): -15.3 ± 0.7 kcal/mol; n (ITC, Table S3) ([5]; cell AbeH): 0.82 ± 0.03; Kd ([6]; ITC, read-out: KD, binding to BorH, ITC): 200 nM and 210 nM; -TDS (-TΔS, ITC, Table S3) ([6]; cell BorH): 15 kcal/mol; DG (ΔG, ITC, Table S3) ([6]; cell BorH): -9.2 kcal/mol; DH (ΔH, ITC, Table S3) ([6]; cell BorH): -24.2 ± 1.6 kcal/mol; n (ITC, Table S3) ([6]; cell BorH): 0.97 ± 0.05; Kd [7]: 800 nM |
| c1ccc2[nH]ccc2c1 [Indole] |  | efficiently chlorinated and brominated | higher rate of bromination than chlorination |  |  |
| NCCc1c[nH]c2ccc(O)cc12 [Serotonin] |  | did not halogenate; also recorded: No activity |  |  |  |
| NCCc1c[nH]c2ccccc12 [Tryptamine] | halogenate | No activity |  |  |  |
| Nc1ccccc1C(=O)CC(N)C(=O)O (centres unmarked) [kynurenine] | halogenate |  |  |  |  |
